Experimental findings from PubChem BioAssay (NCI) are described below.

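1) Cells in 96-well plates. 2) Compound, 48 h, 5 concentrations. 3) Linear interpolation between surrounding doses. 4) Unreached endpoint = highest concentration. Abbreviation: GI50, concentration required for 50% inhibition of growth. The concentration for full growth arrest is given as TGI.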

One assay deals with SN12K1 renal. In words: NCI tumour cell line growth inhibition, 48 h.
`C=C1[C@@H](C)[C@H]2[C@H](Cc3ccccc3)NC(=O)[C@]23OC(=O)/C=C/[C@H](O)CCC[C@@H](C)C/C=C/[C@H]3[C@@H]1O` returned a TGI of 41.1 µM.

In another assay the test system is MDA-N. In words: NCI tumour cell line growth inhibition, 48 h.
With `COc1cc(Nc2nc3cc(N)cc(N)c3nc2-c2ccccc2)cc(OC)c1`, the GI50 was 13 µM and the TGI was found to be 35.9 µM.

`O=C(O)c1cc2ccccc2c(O)c1O` showed a TGI of 4.01 µM. On the same count and under the same terms, in the case of `C=C1[C@@H](C)[C@H]2[C@H](Cc3ccccc3)NC(=O)[C@]23OC(=O)/C=C/[C@H](O)CCC[C@@H](C)C/C=C/[C@H]3[C@@H]1O` it was more than 100 µM.

In turn, `O=C(O)C(=Cc1ccnc2ccccc12)C(=O)O` returned a TGI of more than 100 µM.

Molecule `O=c1cc(C(F)(F)F)c2cc3c(cc2o1)NCCC3` gave a TGI of more than 100 µM.

Regarding `CC1=C(/C=C/C(C)=C\C=C\C(C)=C\C(=O)Nc2ccc3c(c2)OCO3)C(C)(C)CCC1`, the GI50 is 55.7 µM and the TGI was more than 100 µM.

`Cc1c(N=Nc2ccc([N+](=O)[O-])cc2)nc2scc(-c3ccccc3)n12` came in with a TGI of more than 100 µM. In turn, `COc1cc2oc(=O)ccc2cc1C1OC(=O)C2OC21C` (stereo not drawn) registered a TGI of more than 100 µM. Regarding `CC(=O)O[C@H]1C(=O)[C@@]2(C)C(C(OC(=O)c3ccccc3)[C@]3(O)CC(OC(=O)[C@H](OC(=O)CCC(=O)O)C(NC(=O)c4ccccc4)c4ccccc4)C(C)=C1C3(C)C)C1(OC(C)=O)COC1C[C@@H]2OC(=O)CCC(=O)O` (stereo partly drawn), the GI50 is 0.253 µM and the TGI came out at 1.21 µM. The molecule `O=C(/C=C/c1ccc(OCC(=O)N2CCN(c3ccccc3)CC2)cc1)c1ccc(Cl)cc1` showed a TGI of more than 100 µM. `O=c1c2ccccc2c2ccccc2c(=O)n1-c1cc2c3ccccc3ccc2c2ccccc12`: the TGI is more than 100 µM. Regarding `C/C(=N/S(=O)(=O)c1ccc(Cl)c(Cl)c1)OCC(C)(C)C`, the TGI was more than 100 µM.

On to `N#CC(=S)Nc1cccc(Cl)c1`, for which the TGI was more than 100 µM. Molecule `COc1c(O)c2c(c3cc(C(=O)N4CCc5c4c(O)c(OC)c4[nH]c(C(=O)N6CC7CC78C6=CC(=O)c6[nH]cc(C)c68)cc54)[nH]c13)CCN2C(N)=O` (stereo not drawn) registered a TGI of 22.3 µM. The molecule `CC(=O)Nc1ccc(/C=C/[N+](=O)[O-])cc1` had a TGI of 6.59 µM. On the same count and under the same terms, as for `CCCC1c2c(ccc3ccccc23)Oc2ccc3ccccc3c21`, the figure is more than 100 µM.

With `CCCC[C@H]1C(=O)O[C@H](C)[C@H](NC(=O)c2cccc(NC=O)c2O)C(=O)O[C@@H](C)[C@@H]1OC(=O)CC(C)C`, the TGI was 51.9 µM.

The subject of a further assay is P388/ADR leukemia. In words: NCI tumour cell line growth inhibition, 48 h.
`C=C1[C@@H](C)[C@H]2[C@H](Cc3ccccc3)NC(=O)[C@]23OC(=O)/C=C/[C@H](O)CCC[C@@H](C)C/C=C/[C@H]3[C@@H]1O` had a TGI of 73.4 µM.

The next assay deals with P388 leukemia. As to the kind of experiment: NCI tumour cell line growth inhibition, 48 h.
Consider `C=C1[C@@H](C)[C@H]2[C@H](Cc3ccccc3)NC(=O)[C@]23OC(=O)/C=C/[C@H](O)CCC[C@@H](C)C/C=C/[C@H]3[C@@H]1O`, for which the TGI was more than 87.1 µM.
